Where two headings read alike, the source gives them in different places.

The record followed here is patent US10301284B2, “Therapeutic inhibitory compounds” (LifeSci Pharmaceuticals, Inc., priority 2016, dated 2019).

The nature of series [1]: Pharmacokinetic evaluation, oral exposure in rats. Format: in vivo. As to conditions: male Sprague-Dawley rats, single oral dose 10 mg/kg via oral gavage, plasma. The method, then:
Pharmacokinetic studies of select compounds were performed to assess the pharmacokinetic properties. Male Sprague-Dawley rats were administered a single oral dose of the test compound at 10 mg/kg (dose concentration: 2 mg/mL, dose volume: 5 ml/kg) via oral gavage. Blood samples were collected via jugular vein at pre-dose, post-dose 5 min, 15 min, 30 min, 1 h, 2 h, 4 h, 6 h, 8 h, 10 h and 24 h, and centrifuged (8000 rpm for 6 minutes at 2-8° C.). The resulting plasma fractions were analyzed by LC/MS/MS to determine the concentration of the test compound.

Series [2] concerns the target T1, human Plasma Kallikrein (Homo sapiens (Human), UniProt P03952). Kind of series: Human whole blood kallikrein inhibition (ellagic acid-activated human plasma, Z-FR-2-AMC substrate). Format: biochemical. As for the experimental part: The ability of the compounds disclosed herein to inhibit human plasma kallikrein activity was quantified according to the procedures below.
All dilutions were prepared in an assay buffer comprising 50 mM Tris-HCl pH 7.2, 150 mM NaCl, and 0.01% Triton X-100.
Human plasma was thawed on ice and centrifuged for 15 min at 4° C. to remove platelets. A 1 mM stock solution of ellagic acid was diluted to 8 μM and mixed with human plasma, after removing platelets, at a ratio of 1:0.8. The mixture of human plasma and ellagic acid was further diluted 32-fold in the assay buffer, to yield the final mixture for use in the inhibition assay.
A 22.5 μL volume of the final mixture of human plasma and ellagic acid was added to a 96-well microwell plate and the plate was incubated for 15 min at 37° C.
The test compound solution was prepared to provide final concentrations of 20 μM, 5 μM, 1.25 μM, 312.5 nM, 78.125 nM, 19.531 nM, 4.883 nM, 1.221 nM, 0.305 nM, and 0.076 nM. Each test compound concentration was tested in duplicates.
In addition to the inhibitor control and test wells, the 96 well assay plate included positive control wells which contain the mixture of human plasma and ellagic acid without test compounds, and background wells which contain neither the mixture of human plasma and ellagic acid nor the test compounds. The total volume of liquid in positive control and background wells was brought up to 35 μL using the assay buffer.
The assay plate containing test compounds mixed with human plasma and ellagic acid and appropriate controls was incubated at 37° C. for 5 min. A 10 mM stock solution of substrate Z-FR-2-AMC was diluted to 133.2 μM in the assay buffer, and 15 μL of the diluted substrate was added to each well, to yield a final substrate concentration of 40 μM in each well. The reagents were mixed by shaking the plate gently for 30 sec.
The enzyme reaction was quantified by immediate kinetic reading of the assay plate using excitation/emission wavelengths of 330 nm/440 nm respectively. Fluorescence intensity was recorded for 60 min, using a time interval of 43 sec.
The inhibition activity of the test compounds were evaluated using the IC50 values, calculated according to the dose-response curve of the test compounds, fitted using the “log(inhibitor)−response(variable slope)” equation in GraphPadPrism software (GraphPad Software, Inc.).
The percentage inhibition (EC50) was calculated using the following equation:
[formula] where, Mean(BG) is the average value of the fluorescence intensity of the background wells and Mean(PC) is the average value of the fluorescence intensity of the positive control wells.

Series [3] concerns the target T1, human Plasma Kallikrein. Kind of series: In vitro enzyme inhibition of human plasma kallikrein (Pro-Phe-Arg-AMC cleavage). Format: biochemical. As to conditions: human plasma kallikrein, PFR-AMC substrate, 37° C.; read-out: hPK IC50. The procedure, abridged:
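Human plasma kallikrein preincubated 5 min at 37 °C with compound in 50 mM Tris-HCl pH 7.5, 150 mM NaCl, 0.01% Triton X-100. Reaction started with Pro-Phe-Arg-AMC, fluorescence read every 43 s for 1 h at 37 °C. IC50 from highest mean velocity over 20 reads (~15 min).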

Setting [4] is: human plasma activated with ellagic acid, Z-FR-2-AMC 40 μM, 37° C., read-out: HWB EC50.

T1 sequence (P03952 391-638 limits assumed): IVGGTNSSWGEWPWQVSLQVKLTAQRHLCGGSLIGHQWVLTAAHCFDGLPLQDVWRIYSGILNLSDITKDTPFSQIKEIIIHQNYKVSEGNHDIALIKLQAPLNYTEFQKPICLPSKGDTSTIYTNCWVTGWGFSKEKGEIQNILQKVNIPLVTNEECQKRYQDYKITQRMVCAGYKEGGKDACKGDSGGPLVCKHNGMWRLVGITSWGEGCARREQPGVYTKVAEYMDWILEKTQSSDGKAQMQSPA
T1 sequence (P03952 20-390 partner limits assumed): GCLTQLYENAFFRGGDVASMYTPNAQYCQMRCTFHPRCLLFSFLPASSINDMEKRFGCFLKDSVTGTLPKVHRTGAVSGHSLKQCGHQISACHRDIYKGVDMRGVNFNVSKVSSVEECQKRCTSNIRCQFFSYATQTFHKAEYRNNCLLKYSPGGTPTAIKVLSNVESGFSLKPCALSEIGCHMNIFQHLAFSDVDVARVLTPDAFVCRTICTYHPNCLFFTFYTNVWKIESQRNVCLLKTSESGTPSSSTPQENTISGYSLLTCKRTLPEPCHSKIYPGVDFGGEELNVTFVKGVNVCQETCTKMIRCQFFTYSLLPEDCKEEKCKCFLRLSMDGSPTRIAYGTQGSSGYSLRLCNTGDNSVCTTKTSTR

`Cc1cc(N)nc(C)c1CNC(=O)c1cn(Cc2cc(C(C)(C)O)c3ncc(Cl)cc3c2)nc1C#N` [Example 58, N-((6-amino-2,4-dimethylpyridin-3-yl)methyl)-1-((3-chloro-8-(2-hydroxypropan-2-yl)quinolin-6-yl)methyl)-3-cyano-1H-pyrazole-4-carboxamide]: the area under the curve (AUC) in series [1] (rat, read-out: AUC) is less than 100 ng·h/mL. For the same compound, the EC50 on human Plasma Kallikrein [2] (setting [4]) was less than 100 nM. In addition, the IC50 on human Plasma Kallikrein [3] was less than 100 nM.

For the compound `Cc1cc(N)nc(C)c1CNC(=O)c1nnc(Cc2ccc3ncc(Cl)cc3c2)[nH]1` [Example 96, N-((6-amino-2,4-dimethylpyridin-3-yl)methyl)-5-((3-chloroquinolin-6-yl)methyl)-4H-1,2,4-triazole-3-carboxamide], the AUC in series [1] (rat, read-out: AUC) is greater than 10000 ng·h/mL. For the same compound, at human Plasma Kallikrein [2] (setting [4]), the EC50 was less than 100 nM. Also, at human Plasma Kallikrein [3], the IC50 is less than 100 nM.

For `Cc1cc(N)nc(C)c1CNC(=O)c1cn(Cc2ccc3ncc(Cl)cc3c2)c2ncccc12` [Example 12, N-((6-amino-2,4-dimethylpyridin-3-yl)methyl)-1-((3-chloroquinolin-6-yl)methyl)-1H-pyrrolo[2,3-b]pyridine-3-carboxamide], in series [1] (rat, read-out: AUC), the AUC lay in the range of 100 to 1000 ng·h/mL. On human Plasma Kallikrein [2], this compound had an EC50 of less than 100 nM. On human Plasma Kallikrein [3], the IC50 is less than 100 nM.

As for “N-((6-amino-2,4-dimethylpyridin-3-yl)methyl)-1-((3-chloroquinolin-6-yl)methyl)-3-cyano-1H-pyrazole-4-carboxamide [Example 26]”, the AUC entry in series [1] is listed as “B (>100 ng · h/mL to ≤1000 ng · h/mL)”. The EC50 at human Plasma Kallikrein [2] (setting [4]) is 100 to 1000 nM. In addition, the IC50 on human Plasma Kallikrein [3] is less than 100 nM.

Take `Cc1cc(N)nc(C)c1CNC(=O)c1nc(Cc2ccc3ncc(Cl)cc3c2)n2ccccc12` [Example 9, N-((6-amino-2,4-dimethylpyridin-3-yl)methyl)-3-((3-chloroquinolin-6-yl)methyl)imidazo[1,5-a]pyridine-1-carboxamide]: the AUC in series [1] (rat, read-out: AUC) lay within 100 to 1000 ng·h/mL. The EC50 at human Plasma Kallikrein [2] (setting [4]) was less than 100 nM. Also, at human Plasma Kallikrein [3], the IC50 is less than 100 nM.

`Cc1cc(N)nc(C)c1CNC(=O)c1cn(Cc2ccc3ncc(Cl)cc3c2)nc1CN` [Example 27, N-((6-amino-2,4-dimethylpyridin-3-yl)methyl)-3-(aminomethyl)-1-((3-chloroquinolin-6-yl)methyl)-1H-pyrazole-4-carboxamide]: in series [1] (rat, read-out: AUC), the AUC was less than 100 ng·h/mL. On human Plasma Kallikrein [2] (setting [4]), the EC50 was less than 100 nM. Besides, the IC50 at human Plasma Kallikrein [3] was less than 100 nM.

With `Cc1nc(N)ccc1CNC(=O)c1cn(Cc2ccc3ncc(Cl)cc3c2)c2ccc(=O)[nH]c12` [Example 125, N-((6-amino-2-methylpyridin-3-yl)methyl)-1-((3-chloroquinolin-6-yl)methyl)-5-oxo-4,5-dihydro-1H-pyrrolo[3,2-b]pyridine-3-carboxamide], the EC50 at human Plasma Kallikrein [2] (setting [4]) is less than 100 nM. Moreover, the IC50 at human Plasma Kallikrein [3] is less than 100 nM.

As for `Cc1cc(N)nc(C)c1CNC(=O)c1nnc(Cc2ccc3ncc(Cl)cc3c2)o1` [Example 30, N-((6-amino-2,4-dimethylpyridin-3-yl)methyl)-5-((3-chloroquinolin-6-yl)methyl)-1,3,4-oxadiazole-2-carboxamide], in series [1] (rat, read-out: AUC), the AUC fell in the range of 1000 to 10000 ng·h/mL. Further, the EC50 at human Plasma Kallikrein [2] (setting [4]) is less than 100 nM. At human Plasma Kallikrein [3], the IC50 was less than 100 nM.

Take `Cc1cc(N)nc(C)c1CNC(=O)c1ncn(Cc2ccc3ncc(Cl)cc3c2)n1` [Example 4, N-((6-amino-2,4-dimethylpyridin-3-yl)methyl)-1-((3-chloroquinolin-6-yl)methyl)-1H-1,2,4-triazole-3-carboxamide]: the AUC in series [1] (rat, read-out: AUC) was less than 100 ng·h/mL. Besides, at human Plasma Kallikrein [2] (setting [4]), the EC50 is less than 100 nM. Moreover, at human Plasma Kallikrein [3], the IC50 was less than 100 nM.

`Cc1cc(N)nc(C)c1CNC(=O)c1ncc(Cc2ccc3ncc(Cl)cc3c2)o1` [Example 31, N-((6-amino-2,4-dimethylpyridin-3-yl)methyl)-5-((3-chloroquinolin-6-yl)methyl)oxazole-2-carboxamide]: the AUC in series [1] (rat, read-out: AUC) was 1000 to 10000 ng·h/mL. Further, at human Plasma Kallikrein [2] (setting [4]), the EC50 was less than 100 nM. On human Plasma Kallikrein [3], the IC50 was less than 100 nM.

As to `Cc1cc(N)nc(C)c1CNC(=O)c1cn(Cc2ccc3ncc(Cl)cc3c2)cn1` [Example 3, N-((6-amino-2,4-dimethylpyridin-3-yl)methyl)-1-((3-chloroquinolin-6-yl)methyl)-1H-imidazole-4-carboxamide], the AUC in series [1] (rat, read-out: AUC) lay within 100 to 1000 ng·h/mL. The EC50 at human Plasma Kallikrein [2] (setting [4]) is less than 100 nM. Also, the IC50 at human Plasma Kallikrein [3] is less than 100 nM.

For “4-amino-N-((6-amino-2,4-dimethylpyridin-3-yl)methyl)-1-((3-chloroquinolin-6-yl)methyl)-1H-pyrazole-3-carboxamide [Example 25]”, the AUC result in series [1] is reported as “C (>1000 ng · h/mL to ≤10,000 ng · h/mL)”. For the same compound, on human Plasma Kallikrein [2] (setting [4]), the EC50 was less than 100 nM. Further, on human Plasma Kallikrein [3], the IC50 was less than 100 nM.

Turning to `Cc1cnc2c(S(C)(=O)=O)cc(Cn3cc(C(=O)NCc4c(C)cc(N)nc4C)c(C#N)n3)cc2c1` [Example 61, N-((6-amino-2,4-dimethylpyridin-3-yl)methyl)-3-cyano-1-((3-methyl-8-(methylsulfonyl)quinolin-6-yl)methyl)-1H-pyrazole-4-carboxamide], the AUC in series [1] (rat, read-out: AUC) is less than 100 ng·h/mL. On human Plasma Kallikrein [2] (setting [4]), the EC50 was less than 100 nM. On human Plasma Kallikrein [3], the IC50 is less than 100 nM.

Consider `Cc1cc(N)nc(C)c1CNC(=O)c1nn(Cc2ccc3ncc(Cl)cc3c2)nc1C#N` [Example 95, N-((6-amino-2,4-dimethylpyridin-3-yl)methyl)-2-((3-chloroquinolin-6-yl)methyl)-5-cyano-2H-1,2,3-triazole-4-carboxamide], for which the AUC in series [1] (rat, read-out: AUC) lay within 100 to 1000 ng·h/mL. Also, the EC50 on human Plasma Kallikrein [2] (setting [4]) is less than 100 nM. Besides, the IC50 on human Plasma Kallikrein [3] was less than 100 nM.

In the case of `Cc1cc(N)nc(C)c1CNC(=O)c1cnc(Cc2ccc3ncc(Cl)cc3c2)o1` [Example 114, N-((6-amino-2,4-dimethylpyridin-3-yl)methyl)-2-((3-chloroquinolin-6-yl)methyl)oxazole-5-carboxamide], the AUC in series [1] (rat, read-out: AUC) lay within 1000 to 10000 ng·h/mL. Moreover, on human Plasma Kallikrein [2] (setting [4]), the EC50 is less than 100 nM.

As for `Cc1cc(N)nc(C)c1CNC(=O)c1cn(Cc2ccc3ncc(Cl)cc3c2)c2ccc(=O)[nH]c12` [Example 126, N-((6-amino-2,4-dimethylpyridin-3-yl)methyl)-1-((3-chloroquinolin-6-yl)methyl)-5-oxo-4,5-dihydro-1H-pyrrolo[3,2-b]pyridine-3-carboxamide], the EC50 on human Plasma Kallikrein [2] (setting [4]) was less than 100 nM. Besides, the IC50 at human Plasma Kallikrein [3] was less than 100 nM.

Take `Cc1cc(N)nc(C)c1CNC(=O)c1ccn(Cc2ccc3ncc(Cl)cc3c2)n1` [Example 1, N-((6-amino-2,4-dimethylpyridin-3-yl)methyl)-1-((3-chloroquinolin-6-yl)methyl)-1H-pyrazole-3-carboxamide]: the AUC in series [1] (rat, read-out: AUC) is 100 to 1000 ng·h/mL. For the same compound, the EC50 on human Plasma Kallikrein [2] (setting [4]) is less than 100 nM.

In the case of `Cc1cc(N)nc(C)c1CNC(=O)c1nc(C#N)n(Cc2ccc3ncc(Cl)cc3c2)n1` [Example 101, N-((6-amino-2,4-dimethylpyridin-3-yl)methyl)-1-((3-chloroquinolin-6-yl)methyl)-5-cyano-1H-1,2,4-triazole-3-carboxamide], the IC50 at human Plasma Kallikrein [3] was greater than 10000 nM.

Take `N#Cc1nn(Cc2cc(F)c3ncc(Cl)cc3c2)cc1C(=O)NCc1ccc2[nH]cc(Cl)c2c1F` [Example 57, N-((3-chloro-4-fluoro-1H-indol-5-yl)methyl)-1-((3-chloro-8-fluoroquinolin-6-yl)methyl)-3-cyano-1H-pyrazole-4-carboxamide]: the IC50 at human Plasma Kallikrein [3] lay in the range of 100 to 1000 nM.

In the case of `Cc1cc(N)nc(C)c1CNC(=O)c1cn(Cc2cc(C(N)=O)c3ncc(Cl)cc3c2)nc1C#N` [Example 72, 6-((4-(((6-amino-2,4-dimethylpyridin-3-yl)methyl)carbamoyl)-3-cyano-1H-pyrazol-1-yl)methyl)-3-chloroquinoline-8-carboxamide], at human Plasma Kallikrein [3], the IC50 is less than 100 nM.

In general, AUC refers to the area under the concentration-time curve, a measure of exposure. As a reminder, the EC50 is the concentration needed to bring the measured effect to its halfway point. A word on the IC50: it is the point on the concentration scale where inhibition reaches its midpoint.
